Data published in patent US10822318B2, “Lactone-based probes and methods of use thereof” (REGENTS OF THE UNIVERSITY OF MINNESOTA, priority 2017, dated 2020).

Key:
PBP2x and PBP2b = experiment: Dual-labeling experiments, 7FL followed by 8T; format: cell-based, S. pneumoniae; details: both 5 μg/mL for 20 minutes
Method: S. pneumoniae E193 (Δpbp1b) cells were grown in BHI broth at 37° C. in an atmosphere of 5% CO2 to reach an OD620 of 0.2-0.25. Cells from 1.5 ml of culture were harvested by centrifugation (16,100×g for 2 min at RT) and washed with 1 ml of PBS, pH 7.4. Cell pellets were resuspended in 50 μl of PBS containing 5 μg/ml lactone-L-Phe-FL (7FL) and incubated at RT for 20 min. Cells were then washed with 1 ml PBS prior to suspension in 50 μl of 5 μg/ml solution of Lac-D-Phe-TAMRA (8T) in PBS. After incubation for 20 min at RT, cells were washed and resuspended in 100 μl of PBS containing 10 mg/ml of lysozyme. Cell lysis and sample preparation for SDS PAGE was followed as described earlier.

PBPs = experiment: Gel-based analysis of β-lactone probes applied to Bacillus subtilis PY79 cells; format: cell-based; details: B. subtilis PY79 cells, probe 5 μg/ml
Method: Bacillus subtilis strain PY79, was grown in Luria Bertani (LB) medium in 100×17 mm tubes by incubation at 37° C., shaking at 200 rpm. For labeling experiments, overnight cultures were diluted to OD600=0.01-0.05 and grown as above. Samples with OD600=0.35-0.40 were utilized in labeling experiments conducted as previously described (Kocaoglu, O, et al. (2013) Curr Protoc Chem Biol 5, 239), and summarized as follows: Cell pellets from 1.0 ml of B. subtilis cultures were harvested by centrifugation (8,000×g for 2 min at RT) and washed with phosphate buffered saline (PBS; pH 7.4). […] The protein concentration was measured by NanoDrop 1000 Spectrophotometer (Thermo Scientific) or NanoPhotometer P330 (IMPLEN). […] The protein bands were separated by gel electrophoresis for 1.5 h at 180 V, 400 mA, 60 W. The gel was rinsed with distilled water three times before fluorescence scanning (method description for FIGS. 10a and 10b). […]
After SDS-PAGE, labeled proteins were visualized at 50-μm resolution in gels using a Typhoon 9210 gel scanner (Amersham Biosciences) with 580-nm bandpass filter for TAMRA, 526-nm short-pass filter for fluorescein and BODIPY FL, and 670-nm bandpass filter for BODIPY 650/665. All gel images were analyzed using ImageJ software (National Institutes of Health). […]

| Substance | PBP visualized in dual labeling (PBP2x and PBP2b) | PBPs labeled (gel-based labeling profile) (PBPs) |
| --- | --- | --- |
| (2S,3R)-β-lactone-L-Phe-fluorescein [Probe 7FL] | PBP2x | comparable to the TAMRA probes |
| (2S, 3R)-β-lactone-D-Phe-TAMRA [Probe 8T] | PBP2b | PBP1, PBP2b and PBP5 |
